Our source for the IC50 values is BindingDB's records for doi:10.1021/jm00046a011 (Glaxo Research and Development, 1994).

The assay deals with Squalene synthase (Candida albicans). Put plainly: Compound was tested for in vitro inhibitory activity against Candida albicans 2005E microsomal SQS.

As for `CC[C@H](C)C[C@H](C)CCC(=O)O[C@@H]1[C@@H](O)[C@@]2(CCC(C)[C@H](OC(C)=O)[C@@H](C)Cc3ccccc3)O[C@H](C(=O)O)[C@@](O)(C(=O)O)[C@]1(C(=O)O)O2` (stereo partly drawn) [(1S,3S,4S,5R,6R,7R)-1-((4S,5S)-4-Acetoxy-3,5-dimethyl-6-phenyl-hexyl)-6-((4R,6S)-4,6-dimethyl-octanoyloxy)-4,7-dihydroxy-2,8-dioxa-bicyclo[3.2.1]octane-3,4,5-tricarboxylic acid], the IC50 amounted to 0.007 µM.

Turning to `CC(CC[C@]12O[C@H](C(=O)O)[C@@](O)(C(=O)O)[C@](C(=O)O)(O1)[C@H](O)[C@H]2O)C[C@@H](C)Cc1ccccc1` (stereo partly drawn) [(1S,3S,4S,5R,6R,7R)-1-((R)-3,5-Dimethyl-6-phenyl-hexyl)-4,6,7-trihydroxy-2,8-dioxa-bicyclo[3.2.1]octane-3,4,5-tricarboxylic acid], the IC50 was found to be 0.2 µM.

The term IC50 denotes the concentration that inhibits the measured activity by half.
